Test system: C. elegance
Test: Measurement of dauer formation effect activity
Assay type: in vivo, Caenorhabditis elegance
Description: Next, dauer formation effect of the compound of 6R-(3,6-dideoxy-L-arabino-hexopyranosyloxy)heptanoic acid (I), which is synthesized according to the present process of the invention, is measured using C. elegance.
That is, the dauer formation effect of the synthetic pheromone is measured using C. elegance tinder different feed, temperature and crowd density conditions from each other.
Although it should be passed from an L2 first half step or L3 second half step to an adult step in a condition where the feed and temperature (15-25° C.) are proper and the crowd density is low, when the synthetic pheromone is mixed, the step goes to dauer larva stage.
For comparison, seven C. elegances in the dauer larva and one C. elegance in the adult step are comparatively observed. […] In Picture 1, it can be noted that the C. elegance is not grown without moving.
To identify the dauer formation effect of the inventive pheromone, an activity is measured after the pheromone compound is supplied to S. basal agar culture medium without peptone (Vowels and Thomas, Genetics 130: 105-123, 1992).
The dauer formation effect activity of the inventive compound with respect to C. elegance is shown as Table 3.

## C[C@H](CCCCC(=O)O)O[C@@H]1O[C@@H](C)[C@H](O)C[C@H]1O [synthetic pheromone, 6R-(3,6-dideoxy-L-arabino-hexopyranosyloxy)heptanoic acid]
320 μg/plate of the synthetic pheromone, C. elegance
  dauer formation effect: 100%
Synthetic pheromone mixed in, proper feed and temperature (15-25° C.), low crowd density
  dauer formation effect (observation of larvae): greatly affects the dauer formation effect
